Measurements from ChEMBL document CHEMBL1148913, “Celogenamide A, a new cyclic peptide from the seeds of Celosia argentea” (J Nat Prod, 2004).

Test: Inhibition of tubulin polymerization assessed as turbidity by microtubule assembly assay

Work on `COC(=O)[C@@H]1Cc2cn(c3ccccc23)[C@@H](NC(=O)[C@H](Cc2ccc(O)cc2)NC(=O)[C@@H]2CCCN2C(=O)[C@@H]2CCC(=O)N2)C(=O)N[C@@H](C(C)C)C(=O)N[C@@H](Cc2ccccc2)C(=O)N[C@@H](CO)C(=O)N1` [LYCIUMIN C] yielded an IC50 of over 100 µM.

In the case of `CC(C)[C@@H]1NC(=O)[C@H](NC(=O)[C@H](Cc2ccc(O)cc2)NC(=O)[C@@H]2CCCN2C(=O)[C@@H]2CCC(=O)N2)n2cc(c3ccccc32)C[C@@H](C(=O)N[C@@H](CCCCN)C(=O)O)NC(=O)[C@H](CO)NC(=O)[C@H](Cc2ccccc2)NC1=O` [CELOGENAMIDE A], the IC50 is reported as over 100 µM.

`COC(=O)[C@@H]1Cc2cn(c3ccccc23)[C@@H](NC(=O)[C@H](Cc2ccc(O)cc2)NC(=O)[C@@H]2CCCN2C(=O)[C@@H]2CCC(=O)N2)C(=O)N[C@@H](C(C)C)C(=O)NCC(=O)N[C@@H](CO)C(=O)N1` [LYCLUMIN A] gave an IC50 of over 100 µM.
